The values that follow come from patent publication US5801180A, “Quinazoline derivatives” (priority 1991, dated 1998).

Each structure is given as a SMILES string. pIC50: −log10 of the molar value.

The experiment concerns the target T1, cGMP-PDE prepared from the swine aeorta (Sus scrofa, UniProt A0A287B475).
T1 construct: The swine aeorta was sliced; from tissue; host or cells: swine aorta, 100000×g supernatant, DEAE-Toyopearl 650S fraction
Description: Enzyme inhibiting action with the use of cGMP-PDE prepared from the swine aorta. The class given is biochemical. Particulars: CaM-independent cGMP-PDE, 1 mM EGTA, 1 μM cGMP substrate, DMSO 4% or below. As to the method: Enzyme inhibiting action with the use of cGMP-PDE prepared from the swine aeorta
The enzymatic activity of the cGMP-PDE prepared from the swine aeorta was determined according to the method of Thompson et al. ^(1). The enzymatic activity thereof was determined in the presence of 1 mM EGTA by the use of 1 μM cGMP as a substrate. The compound of the present invention was dissolved in DMSO, added to the reaction liquid and examined for the inhibitory activity. The final concentration of DMSO in the reaction liquid was adjusted to 4% or below. (1) Thompson, W. J. and Strada, S. J., Cyclic Nucleotide Phosphodiesterase (PDE), in Methods of Enzymatic Analysis, vol 4, p.127-234, 1984.
The swine aeorta was sliced, followed by the addition of 10 times by volume as much Buffer A (20 mM Tris/HCl, 2 mM Mg acetate, 1 mM Dithiothreitol, 5 mM EDTA, 1400 TIU/liter aprotinin, 10 mg/liter leupeptin, 1 mM benzamidine, 0.2 mM PMSF, pH 7.5). The obtained mixture was homogenized and the homogenate was centrifuged at 100000×g for one hour. The obtained supernatant was supplied a DEAE-Toyopearl 650S (Tosoh, Tokyo, Japan) column. After the column was washed with Buffer B (50 mM Tris/HCl, 0.1 mM EGTA, 2 mM Mg acetate, 1 mM Dithiothreitol, 0.2 mM PMSF, pH 7.5), gradient elution with 0.05 to 0.4M NaCl was conducted. Thus, CaM-independent cGMP-PDE fractions were obtained.
The compound `COc1ccc2nc(CO)nc(NCc3ccc4c(c3)OCO4)c2c1` [Example 139, 2-Hydroxymethyl-4-(3,4-methylenedioxybenzyl)amino-6-methoxyquinazoline] had a pIC50 of 7.68.
The result for `COc1ccc2nc(O)nc(NCc3ccc4c(c3)OCO4)c2c1` [Example 140, 2-Hydroxy-4-(3,4-methylenedioxybenzyl)amino-6-methoxyquinazoline] reads 6.17; that for `ON=Cc1nc(NCc2ccc3c(c2)OCO3)c2cc(Cl)ccc2n1` [Example 146, 2-Hydroxyiminomethyl-4-(3,4-methylenedioxybenzyl)amino-6-chloroquinazoline], 7.82.
As to `CCOC(=O)CON=Cc1nc(NCc2ccc3c(c2)OCO3)c2cc(Cl)ccc2n1` [Example 150, 2-Ethoxycarbonylmethoxyiminomethyl-4-(3,4-methylenedioxybenzyl)amino-6-chloroquinazoline], the pIC50 is 8.14.
`Nc1cc(CNc2ncnc3ccc(Cl)cc23)ccc1Cl` [Example 151, 4-(3-Amino-4-chlorobenzyl)amino-6-chloroquinazoline] gave a pIC50 of 7.09.
`O=CNc1cc(CNc2ncnc3ccc(Cl)cc23)ccc1Cl` [Example 152, 4-(4-Chloro-3-formamidobenzyl)amino-6-chloroquinazoline] gave a pIC50 of 6.96. The pIC50 values of the last two compounds are within 0.2 log units of each other.
The compound `COCCOc1nc(NCc2ccc3c(c2)OCO3)c2cc(Cl)ccc2n1` [Example 164, 2-(2-Methoxyethoxy)-4-(3,4-methylenedioxybenzyl)amino-6-chloroquinazoline] gave a pIC50 of 8.10.
In turn, `COc1nc(NCc2ccc3c(c2)OCO3)c2cc(Cl)ccc2n1` [Example 165, 2-Methoxy-4-(3,4-methylenediokybenzyl)amino-6-chloroquinazoline] gave a pIC50 of 7.80. Against the preceding compound, the pIC50 is 0.30 log units lower.
`COc1nc(NCc2ccc3c(c2)OCO3)c2cc(C#N)ccc2n1` [Example 166, 2-Methoxy-4-(3,4-methylenedioxybenzyl)amino-6-cyanoquinazoline]: the pIC50 is 7.59.
`COc1nc(NCc2ccc3c(c2)OCO3)c2cc(OC)c(OC)c(OC)c2n1` [Example 167, 2,7,8-Tetramethoxy-4-(3,4-methylenedioxybenzyl)aminoquinazoline] had a negative-log IC50 (pIC50) of 6.25. Against the preceding compound, the pIC50 is 1.34 log units lower.
In turn, `OCCOc1nc(NCc2ccc3c(c2)OCO3)c2cc(Cl)ccc2n1` [Example 168] gave a negative logarithm of the IC50 (pIC50) of 7.96.
As for `N#Cc1ccc2nc(OCCO)nc(NCc3ccc4c(c3)OCO4)c2c1` [Example 169, 2-(2-Hydroxyethoxy)-4-(3,4-methylenedioxybenzyl)amino-6-cyanoquinazoline], the pIC50 was 7.96.
Consider `COCCOc1nc(NCc2ccc3c(c2)OCO3)c2cc(OC)ccc2n1` [Example 170, 2-(2-Methoxyethoxy)-4-(3,4-methylenedioxybenzyl)amino-6-methoxyquinazoline], for which the pIC50 was 7.54.
Compound `COCCOc1nc(NCc2ccc3nc[nH]c3c2)c2cc(C#N)ccc2n1` [Example 171, 2-(2-Methoxyethoxy)-4-(benzimidazol-5-yl)methylamino-6-cyanoquinazoline] showed a negative-log IC50 (pIC50) of 9.40.
`CCCOc1nc(NCc2ccc3c(c2)OCO3)c2cc(OC)c(OC)c(OC)c2n1` [Example 172, 2-Propoxy-4-(3,4-methylenedioxybenzyl)amino-6,7,8-trimethoxyquinazoline] showed a negative logarithm of the IC50 (pIC50) of 7.02. This pIC50 lies 2.38 log units lower than the previous one.
The compound `OCCCCOc1nc(NCc2ccc3c(c2)OCO3)c2cc(Cl)ccc2n1` [Example 174, 2-(4-Hydroxybutoxy)-4-(3,4-methylenedioxybenzyl)amino-6-chloroquinazoline] had a pIC50 of 8.40.
In turn, `COCCCCOc1nc(NCc2ccc3c(c2)OCO3)c2cc(Cl)ccc2n1` [Example 175, 2-(4-Methoxybutoxy)-4-(3,4-methylenedioxybenzyl)amino-6-chloroquinazoline] gave a pIC50 of 8.22.
`OCCCCCCOc1nc(NCc2ccc3c(c2)OCO3)c2cc(Cl)ccc2n1` [Example 176] showed a pIC50 of 8.52. Against the preceding compound, the pIC50 is 0.30 log units higher.
As to `Oc1nc(NCc2ccc3c(c2)OCO3)c2cc(Cl)ccc2n1` [Example 177, 2-Hydroxy-4-(3,4-methylenedioxybenzyl)amino-6-chloroquinazoline], the pIC50 is 7.92.
With `OCC(O)COc1nc(NCc2ccc3c(c2)OCO3)c2cc(Cl)ccc2n1` (stereo not shown) [Example 178, 2-(2,3-Dihydroxypropyl)oxy-4-(3,4-methylenedioxybenzyl)amino-6-chloroquinazoline] the figure was 7.96; with `N#Cc1ccc2nc(OCCCC(=O)O)nc(NCc3ccc4c(c3)OCO4)c2c1` [Example 179, 2-(3-Carboxypropyl)oxy-4-(3,4-methylenedioxybenzyl)amino-6-cyanoquinazoline], 8.70; with `CSc1nc(NCc2ccc3c(c2)OCO3)c2cc(Cl)ccc2n1` [Example 180, 2-Methylthio-4-(3,4-methylenedioxybenzyl)amino-6-chloroquinazoline], 8.05.
With `N#Cc1ccc2nc(N3CCOCC3)nc(NCc3ccc4c(c3)OCO4)c2c1` [Example 181, 2-Morpholino-4-(3,4-methylenedioxybenzyl)amino-6-cyanoquinazoline] the figure was 8.30; with `Clc1ccc2nc(N3CCOCC3)nc(NCc3ccc4c(c3)OCO4)c2c1` [Example 182, 2-Morpholino-4-(3,4-methylenedioxybenzyl)amino-6-chloroquinazoline], 8.10.
Regarding `COc1ccc(CNc2nc(N3CCOCC3)nc3ccc(C#N)cc23)cc1Cl` [Example 183, 2-Morpholino-4-(3-chloro-4-methoxybenzyl)amino-6-cyanoquinazoline], the negative logarithm of the IC50 (pIC50) is 9.40.
Turning to `N#Cc1ccc2nc(N3CCC(O)CC3)nc(NCc3ccc4c(c3)OCO4)c2c1` [Example 184, 2-(4-Hydroxypiperidino)-4-(3,4-methylenedioxybenzyl)amino-6-cyanoquinazoline], the pIC50 was 8.22.
As to `OC1CCN(c2nc(NCc3ccc4c(c3)OCO4)c3cc(Cl)ccc3n2)CC1` [Example 185, 2-(4-Hydroxypiperidino)-4-(3,4-methylenedioxybenzyl)amino-6-chloroquinazoline], the negative logarithm of the IC50 (pIC50) was 8.00.
`COc1cc2c(NCc3ccc4c(c3)OCO4)nc(NCCO)nc2c(OC)c1OC` [Example 187, 2-(2-Hydroxyethyl)amino-4-(3,4-methylenedioxybenzyl)amino-6,7,8-trimethoxyquinazoline] gave a pIC50 of 6.92. Against the preceding compound, the pIC50 is 1.08 log units lower.
`OCCNc1nc(NCc2ccc3c(c2)OCO3)c2cc(Cl)ccc2n1` [Example 188, 2-(2-Hydroxyethyl)amino-4-(3,4-methylenedioxybenzyl)amino-6-chloroquinazoline] had a negative logarithm of the IC50 (pIC50) of 7.54.
Consider `CN(CCO)c1nc(NCc2ccc3c(c2)OCO3)c2cc(Cl)ccc2n1` [Example 189, 2-[N-(2-Hydroxyethyl)-N-methylamino]-4-(3,4-methylenedioxybenzyl)amino-6-chloroquinazoline], for which the pIC50 was 7.80. Compared with the last compound, the pIC50 is 0.26 log units higher.
With `OCC1CCCN1c1nc(NCc2ccc3c(c2)OCO3)c2cc(Cl)ccc2n1` (stereo not shown) [Example 190, 2-(9-Hydroxymethylpyrrolidin-1-yl)-4-(3,4-methylenedioxyybenzyl)amino-6-chloroquinazoline] the figure was 8.30.
Consider `OCCN(CCO)c1nc(NCc2ccc3c(c2)OCO3)c2cc(Cl)ccc2n1` [Example 191, 2-Bis(2-hydroxyethyl)amino-4-(3,4-methylenedioxybenzyl)amino-6-chloroquinazoline], for which the pIC50 is 7.72.
`Clc1ccc2nc(-n3ccnc3)nc(NCc3ccc4c(c3)OCO4)c2c1` [Example 192, 2-(1-Imidazolyl)-4-(3,4-methylenedioxybenzyl)amino-6-chloroquinazoline] had a pIC50 of 7.70.
Take `N#Cc1ccc2nc(-n3ccnc3)nc(NCc3ccc4c(c3)OCO4)c2c1` [Example 193, 2-(Imidazol-1-yl)-4-(3,4-methylenedioxybenzyl)amino-6-cyanoquinazoline]: the negative-log IC50 (pIC50) is 9.10. This pIC50 lies 1.40 log units higher than the previous one.
With `CCCCCNc1nc(NCc2ccc3c(c2)OCO3)c2cc(Cl)ccc2n1` [Example 194, 2-Pentylamino-4-(3,4-methylenedioxybenzyl)amino-6-chloroquinazoline] the figure was 8.40.
Compound `NC(=O)CNc1nc(NCc2ccc3c(c2)OCO3)c2cc(Cl)ccc2n1` [Example 197] had a negative-log IC50 (pIC50) of 7.18.
`Nc1nc(NCc2ccc3c(c2)OCO3)c2cc(Cl)ccc2n1` [Example 200, 2-Amino-4-(3,4-methylenedioxybenzyl)amino-6-chloroquinazoline] showed a pIC50 of 7.19. The pIC50 values of the last two compounds are within 0.2 log units of each other.
For `N#Cc1ccc2nc(N)nc(NCc3ccc4c(c3)OCO4)c2c1` [Example 201, 2-Amino-4-(3,4-methylenedioxybenzyl)amino-6-cyanoquinazoline], the pIC50 is 7.31.
The compound `CNC(=O)Nc1nc(NCc2ccc3c(c2)OCO3)c2cc(Cl)ccc2n1` [Example 202, 2-(Methylcarbamoyl)amino-4-(3,4-methylenedioxybenzyl)amino-6-chloroquinazoline] showed a negative-log IC50 (pIC50) of 8.70.
The compound `CNC(=O)N(C(=O)NC)c1nc(NCc2ccc3c(c2)OCO3)c2cc(Cl)ccc2n1` [Example 203, 2-Bis(methylcarbamoyl)amino-4-(3,4-methylenedioxybenzyl)amino-6-chloroquinazoline] showed a negative logarithm of the IC50 (pIC50) of 7.55.
